The numbers were not newly measured in patent US6872562B2, “Herbicide resistant dinitrogen fixing bacteria and method of use” (priority 2001, dated 2005), which cites them from elsewhere.

For this data set, the system named is soybean. Particulars: in vivo; cited from earlier work.

As to `CCCN(CCC)c1c([N+](=O)[O-])cc(C(F)(F)F)cc1[N+](=O)[O-]` [Trifuralin], the “Effect on nodulation and N2 fixation” value was “decreases nodulation and N2 fixation”.
